In patent US9315498B2, “Arlethynyl derivatives” (Hoffmann-La Roche Inc., priority 2010, dated 2016):

Biological target: human mGlu5a receptor (Homo sapiens (Human), UniProt P41594)
Assay: Intracellular Ca2+ mobilization assay (mGlu5 PAM)
Format: cell-based
Details: for EC50: HEK-293 cells stably transfected with human mGlu5a, L-glutamate added at EC20 after pre-incubation with test compound, read-out: EC50 (nM) mGlu5PAM; for Emax: maximal response in % of the maximal stimulatory effect obtained with saturating concentrations of L-glutamate, read-out: Eff. (%)
Outline: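 HEK-293 cells stably expressing human mGlu5a at low level were loaded with Fluo-4AM and preincubated 10–30 min at 37 °C with 11-point half-log compound dilutions. L-glutamate was then added at its daily-determined EC20 (typically around 80 μM). Peak fluorescence minus basal, normalized to maximal glutamate effect, was fitted to give EC50, Hill slope and maximal response.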

human mGlu5a receptor, sequence (P41594 other isoform, or with tags, fused parts or gaps): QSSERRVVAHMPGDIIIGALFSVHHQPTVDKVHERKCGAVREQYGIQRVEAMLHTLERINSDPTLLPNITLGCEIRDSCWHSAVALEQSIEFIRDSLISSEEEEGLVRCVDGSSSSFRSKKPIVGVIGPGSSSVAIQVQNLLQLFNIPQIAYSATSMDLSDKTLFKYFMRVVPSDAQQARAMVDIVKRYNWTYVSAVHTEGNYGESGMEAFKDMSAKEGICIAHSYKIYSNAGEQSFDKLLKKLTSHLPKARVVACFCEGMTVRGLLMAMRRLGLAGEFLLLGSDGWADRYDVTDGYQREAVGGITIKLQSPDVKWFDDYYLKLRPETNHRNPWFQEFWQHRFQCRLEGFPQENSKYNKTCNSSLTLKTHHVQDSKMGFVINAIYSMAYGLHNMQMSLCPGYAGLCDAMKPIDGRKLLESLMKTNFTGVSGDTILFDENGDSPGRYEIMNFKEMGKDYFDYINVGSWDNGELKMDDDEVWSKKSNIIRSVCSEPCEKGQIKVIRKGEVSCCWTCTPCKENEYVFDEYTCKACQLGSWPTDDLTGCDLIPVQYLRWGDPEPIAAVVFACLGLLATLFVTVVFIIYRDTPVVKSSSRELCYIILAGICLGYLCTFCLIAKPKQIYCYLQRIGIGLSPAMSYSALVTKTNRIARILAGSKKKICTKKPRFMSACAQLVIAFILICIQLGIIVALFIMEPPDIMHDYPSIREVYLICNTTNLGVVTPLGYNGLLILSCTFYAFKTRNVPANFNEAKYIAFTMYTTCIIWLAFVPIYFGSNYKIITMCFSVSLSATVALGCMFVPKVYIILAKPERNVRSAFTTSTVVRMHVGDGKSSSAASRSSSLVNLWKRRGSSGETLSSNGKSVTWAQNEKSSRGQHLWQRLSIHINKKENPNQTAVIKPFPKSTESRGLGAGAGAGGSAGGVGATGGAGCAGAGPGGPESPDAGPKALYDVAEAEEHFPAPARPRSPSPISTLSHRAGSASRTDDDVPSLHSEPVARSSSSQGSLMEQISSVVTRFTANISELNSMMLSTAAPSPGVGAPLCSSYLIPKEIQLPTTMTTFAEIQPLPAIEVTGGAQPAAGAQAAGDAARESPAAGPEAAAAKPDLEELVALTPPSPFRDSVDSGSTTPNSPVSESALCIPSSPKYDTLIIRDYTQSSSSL

Row | SMILES | EC50 [nM] | Emax [%]
1 | O=C1OC2(CCCC2)CN1c1ccc(C#Cc2ccccc2)cn1 [Example 11, 3-(5-Phenylethynyl-pyridin-2-yl)-1-oxa-3-aza-spiro[4.4]nonan-2-one] | 39 | 52
2 | CN1C(=O)N(c2ccc(C#Cc3cccc(F)c3)cn2)CC1(C)C [Example 53, 1-[5-(3-Fluoro-phenylethynyl)-pyridin-2-yl]-3,4,4-trimethyl-imidazolidin-2-one] | 29 | 103
3 | COC1C(=O)N(c2ccc(C#Cc3ccc(F)cc3)cn2)CC1(C)C (racemic) [Example 66, (RS)-1-[5-(4-Fluoro-phenylethynyl)-pyridin-2-yl]-3-methoxy-4,4-dimethyl-pyrrolidin-2-one] | 75 | 87
4 | CC1(C)CN(c2ccc(C#Cc3ccccc3)cn2)C(=O)N1 [Example 15, 4,4-Dimethyl-1-(5-phenylethynyl-pyridin-2-yl)-imidazolidin-2-one] | 130 | 101
5 | CN1C(=O)N(c2ncc(C#Cc3cccc(F)c3)cn2)CC1(C)C [Example 123, 1-[5-(3-Fluoro-phenylethynyl)-pyrimidin-2-yl]-3,4,4-trimethyl-imidazolidin-2-one] | 18 | 30
6 | O=C1OC2(CCCCC2)CN1c1ccc(C#Cc2ccccc2)cn1 [Example 12, 3-(5-Phenylethynyl-pyridin-2-yl)-1-oxa-3-aza-spiro[4.5]decan-2-one] | 67 | 80
7 | CC1(C)CCN(c2ccc(C#Cc3ccccc3)nn2)C(=O)C1 [Example 151, 4,4-Dimethyl-1-(6-(phenylethynyl)pyridazin-3-yl)piperidin-2-one] | 19 | 130
8 | COC1C(=O)N(c2ccc(C#Cc3cccc(F)c3)cn2)CC1(C)C (racemic) [Example 65, (RS)-1-[5-(3-Fluoro-phenylethynyl)-pyridin-2-yl]-3-methoxy-4,4-dimethyl-pyrrolidin-2-one] | 43 | 91
9 | CO[C@@H]1C(=O)N(c2ncc(C#Cc3cc(F)ccc3F)cn2)CC1(C)C (single isomer, unassigned) [Example 133, (R or S)-1-[5-(2,5-Difluoro-phenylethynyl)-pyrimidin-2-yl]-3-methoxy-4,4-dimethyl-pyrrolidin-2-one] | 57 | 49
10 | CN1C(=O)N(c2ccc(C#Cc3cncc(Cl)c3)cn2)CC1(C)C [Example 51, 1-[5-(5-Chloro-pyridin-3-ylethynyl)-pyridin-2-yl]-3,4,4-trimethyl-imidazolidin-2-one] | 29 | 45
11 | CC1(C)CC(=O)N(c2ncc(C#Cc3cc(F)ccc3F)cn2)C1 [Example 121, 1-[5-(2,5-Difluoro-phenylethynyl)-pyrimidin-2-yl]-4,4-dimethyl-pyrrolidin-2-one] | 41 | 70
12 | Cc1cccc(C#Cc2ccc(N3CCC(C)(C)OC3=O)nc2)c1 [Example 78, 6,6-Dimethyl-3-(5-m-tolylethynyl-pyridin-2-yl)-[1,3]oxazinan-2-one] | 24 | 72
13 | CN1C(=O)N(c2ccc(C#Cc3ccnnc3)cn2)CC1(C)C [Example 52, 3,4,4-Trimethyl-1-(5-pyridazin-4-ylethynyl-pyridin-2-yl)-imidazolidin-2-one] | 34 | 32
14 | CN1C(=O)N(c2ncc(C#Cc3cccc(F)c3)cn2)CCC1(C)C [Example 138, 5′-(3-Fluoro-phenylethynyl)-3,4,4-trimethyl-3,4,5,6-tetrahydro-[1,2′]bipyrimidinyl-2-one] | 60 | 67
15 | O=C1OC2COCCC2N1c1ccc(C#Cc2ccccc2)cn1 (stereo not drawn) [Example 94, (3aSR,7aRS)-(3aRS,7RS)-1-(5-Phenylethynyl-pyridin-2-yl)-hexahydro-pyrano[4,3-d]oxazol-2-one] | 60 | 84
16 | CC1CN(c2ncc(C#Cc3cc(F)ccc3F)cn2)C(=O)OC1(C)C (racemic) [Example 146, (RS)-3-[5-(2,5-Difluoro-phenylethynyl)-pyrimidin-2-yl]-5,6,6-trimethyl-[1,3]oxazinan-2-one] | 69 | 64
17 | O=C1OC2(CC2)CN1c1ccc(C#Cc2ccccc2)cn1 [Example 9, 6-(5-Phenylethynyl-pyridin-2-yl)-4-oxa-6-aza-spiro[2.4]heptan-5-one] | 15 | 83
18 | CC1(C)CN(c2ccc(C#Cc3ccccc3)cn2)C(=O)CO1 [Example 172, 6,6-Dimethyl-4-(5-phenylethynyl-pyridin-2-yl)-morpholin-3-one] | 29 | 82
19 | CN1C(=O)N(c2ccc(C#Cc3ccccc3)cn2)CCC1(C)C [Example 67, 3,4,4-Trimethyl-1-(5-phenylethynyl-pyridin-2-yl)-tetrahydro-pyrimidin-2-one] | 15 | 81
20 | CC1(C)CCN(c2ccc(C#Cc3ccccc3)nn2)C(=O)O1 [Example 153, 6,6-Dimethyl-3-(6-(phenylethynyl)pyridazin-3-yl)-1,3-oxazinan-2-one] | 14 | 86
21 | CCN1C(=O)N(c2ccc(C#Cc3ccccc3)cn2)CC1(C)C [Example 17, 3-Ethyl-4,4-dimethyl-1-(5-phenylethynyl-pyridin-2-yl)-imidazolidin-2-one] | 66 | 103
22 | CC1CN(c2ncc(C#Cc3ccccc3)cn2)C(=O)OC1(C)C (racemic) [Example 145, (RS)-5,6,6-Trimethyl-3-(5-phenylethynyl-pyrimidin-2-yl)-[1,3]oxazinan-2-one] | 38 | 93
23 | CC(C)N1C(=O)N(c2ccc(C#Cc3ccccc3)cn2)CC1(C)C [Example 18, 3-Isopropyl-4,4-dimethyl-1-(5-phenylethynyl-pyridin-2-yl)-imidazolidin-2-one] | 39 | 133
24 | CN1C(=O)N(c2cnc(C#Cc3cccc(F)c3)cn2)CC1(C)C [Example 158, 1-(5-((3-Fluorophenyl)ethynyl)pyrazin-2-yl)-3,4,4-trimethylimidazolidin-2-one] | 46 | 36
25 | COCC1CCN(c2ccc(C#Cc3ccccc3)cn2)C(=O)O1 (racemic) [Example 105, (RS)-6-Methoxymethyl-3-(5-phenylethynyl-pyridin-2-yl)-[1,3]oxazinan-2-one] | 68 | 51
26 | COCC1CN(c2ccc(C#Cc3ccccc3)cn2)C(=O)O1 (racemic) [Example 2, (5RS)-5-Methoxymethyl-3-(5-phenylethynyl-pyridin-2-yl)-oxazolidin-2-one] | 47 | 34
27 | Cc1cc(C#Cc2ccccc2)cnc1N1CC(C)(C)CC1=O [Example 41, 4,4-Dimethyl-1-(3-methyl-5-phenylethynyl-pyridin-2-yl)-pyrrolidin-2-one] | 58 | 89
28 | CCN1C(=O)N(c2ncc(C#Cc3cccc(F)c3)cn2)CC1(C)C [Example 144, 1-[5-(3-Fluoro-phenylethynyl)-pyrimidin-2-yl]-3-ethyl-4,4-dimethyl-imidazolidin-2-one] | 31 | 58
29 | CC1(C)CN(c2ccc(C#Cc3cccnc3)cn2)C(=O)O1 [Example 7, 5,5-Dimethyl-3-(5-pyridin-3-ylethynyl-pyridin-2-yl)-oxazolidin-2-one] | 33 | 39
